Active and inactive are the calls of the source.
Assays:
cells [1] = assay type: functional, cell-based
cells [2] = assay type: functional, cell-based; remark: listed apart in the source
Cytochrome P450 2C19 = Cytochrome P450 2C19 (Homo sapiens, UniProt P33261); assay: Cytochrome panel assay with activity outcomes. Panel member name: p450-cyp2c19 Compounds with AC50 equal or less than 10 uM are considered active; assay type: functional; conditions: read-out: AC50
[3] = target: 26S proteasome non-ATPase regulatory subunit 14 (Homo sapiens, UniProt O00487); assay: inhibition of proteasome subunit RPN11 – biochemical, fluorescence polarization, uHTS hits, confirmation (AID 602368); assay type: functional
[4] = Trypanosoma cruzi growth suppression in host cells – NIH3T3 host cells, beta-gal luminescence, confirmation (AID 2044); assay type: functional, cell-based;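 further: intracellular parasites grown in NIH/3T3 mouse fibroblasts as host cells; luminescent beta-galactosidase reporter signal from transgenic T. cruzi replicating inside host cells; inhibitors lower the luminescence signal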
[5] = viability of HCT116 lacking mutant beta-catenin – cell-based, human colon tumor, dose response (AID 1045); assay type: functional;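 further: HCT116 colon tumor cells with beta catenin knocked out; cells exposed to compound for 60 hours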
[6] = target: 72 kDa type IV collagenase (Homo sapiens, UniProt P08253); assay: Dose Response validation of uHTS RPN11 inhibitor hits using a MMP-2 Fluorescence assay.; assay type: functional
Cytochrome P450 3A4 = Cytochrome P450 3A4 (Homo sapiens, UniProt P08684);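 further: CYP3A4 tested as one member of a cytochrome P450 panel screen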
[7] = target: T1, Microphthalmia-associated transcription factor (Homo sapiens, UniProt O75030); assay: reducers of TRPM1 reporter luminescence, concentration series – cell-based, SK-MEL-5, cherry-picked, set 3, MITF inhibitor project, dose response (AID 493073); assay type: functional;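 further: SK-MEL-5 melanoma cells with luciferase driven by the MITF target TRPM1 promoter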
T1 sequence (O75030 whole entry): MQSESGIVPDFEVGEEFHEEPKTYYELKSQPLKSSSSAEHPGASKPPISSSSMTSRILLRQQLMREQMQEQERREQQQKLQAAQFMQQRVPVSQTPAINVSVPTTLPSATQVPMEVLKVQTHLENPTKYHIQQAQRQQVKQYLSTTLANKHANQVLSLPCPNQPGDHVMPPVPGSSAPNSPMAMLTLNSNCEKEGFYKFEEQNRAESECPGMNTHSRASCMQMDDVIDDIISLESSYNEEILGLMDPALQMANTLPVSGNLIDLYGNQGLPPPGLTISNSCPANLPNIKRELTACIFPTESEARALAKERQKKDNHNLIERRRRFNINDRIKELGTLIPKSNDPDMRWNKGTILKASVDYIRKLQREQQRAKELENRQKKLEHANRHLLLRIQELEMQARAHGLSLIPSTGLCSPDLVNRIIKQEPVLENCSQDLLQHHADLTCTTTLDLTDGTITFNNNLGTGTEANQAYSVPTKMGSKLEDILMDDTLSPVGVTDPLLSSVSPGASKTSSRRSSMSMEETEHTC

[8] = viability of PTEN-deleted HCT116 cells – cell-based, HCT116 PTEN knockout, dose response (AID 1047); assay type: functional;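 further: HCT116 colon tumor cells with PTEN knocked out; cells exposed to compound for 60 hours before readout; potency for loss of cell viability measured by luminescence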
Prothrombin = Prothrombin (Bos taurus, UniProt P00735); assay: thrombin protease inhibitors – biochemical, fluorescence polarization, uHTS hits, dose response (AID 602369); assay type: functional
[9] = NIH3T3 cell viability loss – ATP luminescence, mouse fibroblasts, counter-screen, dose response (AID 2010); assay type: functional, cell-based;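 further: cells exposed to compound for about 90 hours before reading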
INS1 = assay: INS-1E survival protection against cytokine death – cell-based, luminescence, retest, dose response (AID 449756); assay type: functional; conditions: Rattus norvegicus;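 further: cell death triggered by IL-1 beta plus TNF-alpha plus IFN-gamma mixture; protective hits raise ATP signal compared with cytokine alone wells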
[10] = fluconazole-exposed Candida albicans growth modulators – fluorescence, retest, confirmation (AID 2467); assay type: functional, cell-based
[11] = NIH-3T3 fibroblast cytotoxicity, dose response, cytotoxicity control, cell-based, fluorescence, Alamar Blue, secondary assay (AID 2327); assay type: functional;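 further: NIH-3T3 mouse fibroblasts cultured with fluconazole at 8 µg/mL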
[12] = target: T2, Probable nicotinate-nucleotide adenylyltransferase (Staphylococcus aureus (strain N315), UniProt P65502); assay type: functional, Staphylococcus aureus subsp. aureus N315;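 on IC50 Mean: confirmatory dose-response retesting of NadD inhibitor hits first found in an ultra-high-throughput screen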
[13] = target: T2, Probable nicotinate-nucleotide adenylyltransferase; assay type: functional, Staphylococcus aureus subsp. aureus N315; conditions: read-out: IC50_Mean
[14] = target: T3, Low molecular weight phosphotyrosine protein phosphatase (Homo sapiens, UniProt P24666); assay type: functional; conditions: read-out: IC50_Mean;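 further: Dose-response confirmation assay measuring inhibition of LMPTP enzyme activity by fluorescence intensity read-out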
T3 sequence (P24666 whole entry): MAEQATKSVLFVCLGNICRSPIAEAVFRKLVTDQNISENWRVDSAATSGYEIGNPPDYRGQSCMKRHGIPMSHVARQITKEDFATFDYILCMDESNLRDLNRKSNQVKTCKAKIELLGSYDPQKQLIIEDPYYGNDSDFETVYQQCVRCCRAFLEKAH

[15] = viability loss in CEM21 cells – cell-based, CellTiter-Glo luminescence, cherry-picked, cytotoxicity control for viral fusion inhibitor project, dose response (AID 652042); assay type: functional;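 further: potency for signal decrease meaning cytotoxicity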
[16] = blockers of HIV-1 envelope-mediated cell-cell fusion – cherry-pick, dose response (AID 652057); assay type: functional, cell-based
[17] = HIV-1 AD8 envelope cell-cell fusion blockers – cherry-pick, dose response (AID 652062); assay type: functional, cell-based;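 further: luciferase signal from cell-cell fusion driven by HIV-1 clade B AD8 Env; potency is for inhibitors of fusion seen as a drop in luminescence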
[18] = general cell-killing toxicity readout – plate reader, dry powder samples, cytotoxicity control for PAX8 inhibitor project, dose response (AID 743021); assay type: functional, cell-based
Paired box protein Pax-8 = Paired box protein Pax-8 (Homo sapiens, UniProt Q06710); assay: PAX8 transcriptional activity inhibition in RMG-I – RMG-I cells, luciferase, cherry-pick, dose response (AID 687027); assay type: functional, cell-based;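 further: luciferase reporter driven by Pax8 target thyroperoxidase promoter measured by SteadyGlo luminescence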
[19] = blockers of HIV-1 ZM109 envelope-driven cell-cell fusion – HeLa effector, CEM target cells, luciferase, cherry-pick, dose response (AID 652058); assay type: functional, cell-based;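 further: luciferase signal from HIV-1 Env mediated cell-cell fusion of effector and target cells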
[20] = off-target signal loss in HeLa-CEM21 co-culture – HeLa F-luc CTL cells, cherry-picked, counter-screen for HIV-1 Env fusion inhibitor project, dose response (AID 652040); assay type: functional, cell-based;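 further: potency for signal decrease marking cytotoxic or nonspecific inhibition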
[21] = general mammalian cell viability loss – inhibitor set, cherry-pick, set 2, cytotoxicity control for miR-122 modulator project, dose response (AID 720697); assay type: functional, cell-based

T2 sequence (P65502 whole entry): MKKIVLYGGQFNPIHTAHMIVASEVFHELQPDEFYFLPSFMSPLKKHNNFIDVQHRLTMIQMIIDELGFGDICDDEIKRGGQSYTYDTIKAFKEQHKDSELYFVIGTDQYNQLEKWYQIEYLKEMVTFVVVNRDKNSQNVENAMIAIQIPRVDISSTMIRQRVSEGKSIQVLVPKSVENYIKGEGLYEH
26S proteasome non-ATPase regulatory subunit 14, sequence (O00487 whole entry): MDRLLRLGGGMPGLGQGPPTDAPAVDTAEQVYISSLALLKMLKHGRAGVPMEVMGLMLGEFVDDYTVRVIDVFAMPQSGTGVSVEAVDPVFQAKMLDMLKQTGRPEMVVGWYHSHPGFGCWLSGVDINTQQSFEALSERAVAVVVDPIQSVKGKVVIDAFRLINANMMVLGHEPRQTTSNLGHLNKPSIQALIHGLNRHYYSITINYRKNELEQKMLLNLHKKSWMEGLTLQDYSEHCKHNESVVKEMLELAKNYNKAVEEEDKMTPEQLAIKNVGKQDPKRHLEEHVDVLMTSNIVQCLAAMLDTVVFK
72 kDa type IV collagenase, sequence (P08253 whole entry): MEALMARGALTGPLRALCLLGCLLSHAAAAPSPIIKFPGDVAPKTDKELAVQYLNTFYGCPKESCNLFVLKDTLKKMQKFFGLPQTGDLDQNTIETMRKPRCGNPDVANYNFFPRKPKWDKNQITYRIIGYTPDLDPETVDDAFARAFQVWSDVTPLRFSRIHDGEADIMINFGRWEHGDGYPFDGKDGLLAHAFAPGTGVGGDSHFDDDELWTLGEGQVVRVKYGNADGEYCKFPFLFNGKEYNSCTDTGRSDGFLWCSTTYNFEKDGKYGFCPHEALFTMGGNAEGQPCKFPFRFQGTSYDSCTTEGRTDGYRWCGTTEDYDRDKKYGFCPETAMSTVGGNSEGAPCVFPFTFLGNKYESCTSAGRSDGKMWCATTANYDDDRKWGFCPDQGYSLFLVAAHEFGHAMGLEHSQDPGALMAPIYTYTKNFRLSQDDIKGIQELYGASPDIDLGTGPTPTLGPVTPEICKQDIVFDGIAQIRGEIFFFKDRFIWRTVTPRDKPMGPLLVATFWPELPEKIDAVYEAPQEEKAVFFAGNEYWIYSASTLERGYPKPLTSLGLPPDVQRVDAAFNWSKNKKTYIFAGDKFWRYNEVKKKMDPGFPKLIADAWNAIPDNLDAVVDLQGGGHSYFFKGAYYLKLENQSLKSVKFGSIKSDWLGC
Cytochrome P450 3A4, sequence (P08684 whole entry): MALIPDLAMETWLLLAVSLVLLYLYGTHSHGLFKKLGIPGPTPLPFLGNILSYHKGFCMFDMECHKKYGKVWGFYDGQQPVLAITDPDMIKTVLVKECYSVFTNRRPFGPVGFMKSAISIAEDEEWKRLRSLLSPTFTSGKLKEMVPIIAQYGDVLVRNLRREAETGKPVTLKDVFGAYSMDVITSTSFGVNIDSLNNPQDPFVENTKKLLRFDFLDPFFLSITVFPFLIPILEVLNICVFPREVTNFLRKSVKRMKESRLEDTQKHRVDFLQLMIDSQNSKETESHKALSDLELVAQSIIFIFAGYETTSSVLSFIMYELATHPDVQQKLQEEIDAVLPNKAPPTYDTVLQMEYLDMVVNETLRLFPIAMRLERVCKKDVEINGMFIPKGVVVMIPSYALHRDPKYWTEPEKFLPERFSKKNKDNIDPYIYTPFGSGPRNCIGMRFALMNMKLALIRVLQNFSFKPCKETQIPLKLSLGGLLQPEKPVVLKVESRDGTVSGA
Paired box protein Pax-8, sequence (Q06710 whole entry, the tested form may be a part): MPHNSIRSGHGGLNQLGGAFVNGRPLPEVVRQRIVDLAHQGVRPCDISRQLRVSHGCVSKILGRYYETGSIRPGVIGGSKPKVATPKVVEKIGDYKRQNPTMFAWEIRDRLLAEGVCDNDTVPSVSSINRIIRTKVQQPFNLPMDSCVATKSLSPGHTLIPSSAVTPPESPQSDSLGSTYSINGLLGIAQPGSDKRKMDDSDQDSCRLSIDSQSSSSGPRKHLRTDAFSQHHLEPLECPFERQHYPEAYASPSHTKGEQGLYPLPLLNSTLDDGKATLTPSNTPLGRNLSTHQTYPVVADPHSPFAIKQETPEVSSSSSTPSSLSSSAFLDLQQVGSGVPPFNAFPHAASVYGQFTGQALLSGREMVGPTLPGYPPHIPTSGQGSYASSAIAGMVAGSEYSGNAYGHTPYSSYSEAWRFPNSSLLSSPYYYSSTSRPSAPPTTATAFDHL
Cytochrome P450 2C19, sequence (P33261 whole entry): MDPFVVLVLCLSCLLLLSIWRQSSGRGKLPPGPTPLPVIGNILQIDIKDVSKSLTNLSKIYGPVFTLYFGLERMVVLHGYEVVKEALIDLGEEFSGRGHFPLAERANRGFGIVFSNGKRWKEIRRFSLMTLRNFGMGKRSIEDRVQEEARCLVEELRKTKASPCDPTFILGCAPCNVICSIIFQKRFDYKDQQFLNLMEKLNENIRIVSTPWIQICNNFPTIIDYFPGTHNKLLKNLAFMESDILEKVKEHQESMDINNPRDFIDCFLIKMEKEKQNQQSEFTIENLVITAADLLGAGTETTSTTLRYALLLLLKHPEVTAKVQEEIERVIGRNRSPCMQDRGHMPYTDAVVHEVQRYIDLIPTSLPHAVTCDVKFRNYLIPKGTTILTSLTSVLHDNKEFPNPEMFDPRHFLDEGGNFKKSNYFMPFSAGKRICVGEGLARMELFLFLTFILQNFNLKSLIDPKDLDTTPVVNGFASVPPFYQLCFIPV

For `O=C(NCCc1ccccc1)Oc1ccc(Cl)cc1`, the IC50 (cells [1]) was > 29.9 µM (inactive) and the EC50 (cells [2]) was > 29.9 µM (inactive).
In the case of `Cc1cc2ncn(/N=C/c3ccc([N+](=O)[O-])o3)c2cc1C`, the AC50 (Cytochrome P450 2C19) is reported as 1.12 µM (inconclusive), the IC50 [3] is reported as 73.6 µM (active) and the EC50 [4] is reported as 0.195 µM (active). The EC50 [5] was 5.7 µM (active), the IC50 [6] was > 100 µM (inactive) and the AC50 (Cytochrome P450 3A4) was 15.8 µM (inconclusive). For the same molecule, the AC50 [7] was 21.9 µM (active), the EC50 [8] was 6.44 µM (active) and the IC50 (Prothrombin) was 51.4 µM (active). The EC50 [9] was 15.5 µM (active).
With `O=C(N/N=C/c1sc(N2CCOCC2)nc1-c1ccccc1)c1cccc(S(=O)(=O)N2CCCC2)c1` the IC50 [3] was 19.6 µM (active), the AC50 (INS1) was 2.44 µM (active) and the IC50 [6] was > 100 µM (inactive). The EC50 [10] was 3.31 µM (active), the EC50 [11] was 49.2 µM (active) and the IC50 (Prothrombin) was 24.5 µM (active).
In the case of `O=C(N/N=C/C=C\c1ccccc1[N+](=O)[O-])c1cc(-c2ccc3ccccc3c2)[nH]n1`, the IC50 [12] is reported as 22.5 µM (active) and the IC50 [13] is reported as 74.3 µM (active).
For `Cc1cc(N2CCN(C(C(=O)NC3CCCC3)c3ccco3)CC2)c2ccccc2n1` (centres undefined), the IC50 [14] was 27.3 µM (inactive).
For `CC(=NNc1ccc2ccccc2n1)c1ccccn1`, the AC50 [15] was 0.399 µM (active), the AC50 [16] was 3.13 µM (active) and the AC50 [17] was 5 µM (active). For the same molecule, the AC50 [18] was 59.5 µM (active), the AC50 (Paired box protein Pax-8) was 2.27 µM (active) and the AC50 [19] was 10.7 µM (active). For the same molecule, the AC50 [20] was 8.41 µM (active).
For `CNC(=O)C[C@H]1CC[C@@H]2[C@H](COc3ccc(NC(=O)C(C)C)cc3C(=O)N2C)O1`, the AC50 [21] was 9.62 µM (active).
